The text below walks through data of patent publication US9782401B1, “Method of isolating phenanthroindolizidine alkaloids from Tylophora atrofolliculata with HIF-1 inhibitory activity, compositions comprising them and their use” (priority 2016, dated 2017).

One series deals with T47D cells. In words: Cytotoxicity by MTT assay against T47D cells. To be noted: read-out: Cytotoxicity against T47D cells IC50 (nM) Hypoxic; T47D cells, hypoxic conditions, MTT assay. The source says:
(§1) All experiments were independently performed at least three times.

Series [1] can be described thus: Cytotoxicity by MTT assay against T47D cells. The following applies: human.
Description: as §1

For series [2], the target named is T1, HIF-1 (Homo sapiens, UniProt Q16665). In words: HIF-1-mediated reporter gene assay in T47D cells (HRE-luciferase, hypoxia-induced HIF-1 activation). The format is cell-based. Also on record: endogenous in cells; host or cells: T47D cells (American Type Culture Collection). On the procedure:
The HIF-1-mediated reporter gene assay in T47D cells was performed according to a previous protocol with minor modification (Parhira, S. et al., Sci. Rep., 2014, 4, 4748). T47D cells (American Type Culture Collection) were cultured in DMEM medium (Invitrogen), supplemented with 10% (v/v) fetal serum (FBS) (Invitrogen), 100 U/mL penicillin, and 100 μg/mL streptomycin (Invitrogen) in a humidified atmosphere (5% CO2 and 95% air) at 37° C. Cells (5×10^6) were co-transfected with the HRE-luciferase (Addgene) and Renilla plasmids using Lipofectamine 2000 (Invitrogen) according to the manufacturer's protocol. The transfected cells were seeded in 96-well plates with a density of 5×10^4/well and cultured in DMEM with 10% FBS overnight. After addition of the test compounds with different concentrations, the cells were incubated for 1 h, and then exposed to hypoxic (2% O2/5% CO2/93% N2) or normoxic (5% CO2/95% air) conditions at 37° C. for 20 h. Then the cells were lysed, and luciferase assay was performed using a Dual-Luciferase® reporter assay (Promega) kit according to the instructions of the manufacturer. Luciferase activities of both HRE and Renilla were determined by a multimode reader (Infinite 200 PRO, Teacan). HIF-1 transcriptional activity was shown by the ratio of firefly/Renilla luciferase activity. IC50 values were determined from the dose-response curves using Prism software. The data were repeated by three independent experiments.

The target of series [3] is T1, HIF-1. The following applies: literature value (Hodges et al. 2004; Cai et al. 2006); read-out: HIF-1 inhibition IC50 (literature); cited from earlier work.
Where [4] appears, read: T47D cells, Cytotoxicity against T47D cells IC50 (nM) Hypoxic, hypoxic conditions, MTT assay.
The mark [5] stands for this setting: T47D cells, Cytotoxicity against T47D cells IC50 (nM) Normoxic, normoxic conditions, MTT assay.
Setting [6] is: T47D human breast tumor cells, HIF-1 activation induced by hypoxia (2% O2, 20 h), means±SD, read-out: HIF-1 activation inhibitory activity IC50 (nM) T47D.
[7] abbreviates: Cytotoxicity against T47D cells IC50 (nM) Hypoxic, T47D cells, hypoxic conditions, MTT assay.
Where [8] appears, read: Cytotoxicity against T47D cells IC50 (nM) Normoxic, T47D cells, normoxic conditions, MTT assay.

Where two headings read alike, the source gives them in different places.

T1 sequence (Q16665 whole entry): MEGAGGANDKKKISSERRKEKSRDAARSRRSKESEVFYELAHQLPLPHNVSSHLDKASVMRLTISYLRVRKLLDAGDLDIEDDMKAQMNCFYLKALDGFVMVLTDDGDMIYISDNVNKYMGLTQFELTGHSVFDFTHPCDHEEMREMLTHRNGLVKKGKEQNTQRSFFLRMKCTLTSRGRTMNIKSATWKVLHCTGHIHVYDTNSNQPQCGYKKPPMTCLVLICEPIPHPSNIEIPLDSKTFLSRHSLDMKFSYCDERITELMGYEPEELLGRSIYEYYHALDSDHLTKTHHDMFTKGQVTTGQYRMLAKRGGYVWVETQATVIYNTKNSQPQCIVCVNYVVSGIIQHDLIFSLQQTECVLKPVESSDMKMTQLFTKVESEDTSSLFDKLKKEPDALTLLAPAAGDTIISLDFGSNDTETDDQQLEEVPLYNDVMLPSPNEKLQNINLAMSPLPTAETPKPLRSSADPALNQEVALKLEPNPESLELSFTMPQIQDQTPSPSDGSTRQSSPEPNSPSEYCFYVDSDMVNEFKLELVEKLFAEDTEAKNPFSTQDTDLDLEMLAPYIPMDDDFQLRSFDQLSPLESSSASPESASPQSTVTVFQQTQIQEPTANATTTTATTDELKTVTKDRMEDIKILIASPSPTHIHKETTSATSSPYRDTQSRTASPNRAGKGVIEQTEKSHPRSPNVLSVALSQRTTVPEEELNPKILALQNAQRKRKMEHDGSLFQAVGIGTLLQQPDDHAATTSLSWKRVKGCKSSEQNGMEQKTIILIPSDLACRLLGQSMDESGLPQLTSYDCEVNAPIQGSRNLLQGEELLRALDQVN

In the case of `COc1ccc2c3c(c4cc(OC)c(O)cc4c2c1)C[N+]1([O-])CCC[C@H]1[C@H]3O` (stereo partly shown) [compound 16, tylophoridicine C], the results for the IC50 (in the series on T47D cells; in series [1]; at HIF-1 [2]) were over 100 nM, over 100 nM and 25 nM, respectively.
For `COc1cc2c3c(c4cc(OC)c(OC)cc4c2cc1OC)C[N@+]1([O-])CCC[C@H]1C3` [compound 11, 10R, 13aS-tylophorine N-oxide], the concentration for half-maximal inhibition (IC50) in series [1] (setting [4]) was over 2000 nM; in series [1] (setting [5]) it was over 2000 nM; at HIF-1 [2] (setting [6]), 930 nM.
For the molecule `COc1ccc2c3c(c4cc(OC)c(OC)cc4c2c1)CN1CCC[C@H]1[C@H]3O` [compound 21, O-methyl-tylophorindine], the half-maximal inhibitory concentration (IC50) in series [1] (setting [7]) is over 12500 nM; in series [1] (setting [8]) it was over 500 nM; against HIF-1 [2], 13 nM.
For `COc1cc2c3c(c4ccc(O)cc4c2cc1O)[C@H](O)[C@@H]1CCCN1C3` [compound 13, 3-O-demethyl tylophorinidine], the IC50 in series [1] (setting [4]) is over 250 nM; in series [1] (setting [5]) it was over 250 nM; against HIF-1 [2], 10 nM.
For `COc1cc2c3c(c4cc(O)c(OC)cc4c2cc1O)CC1CCCN1C3` (stereo not shown) [compound 4, 2-hydroxyl deoxytylophorinidine], the half-maximal inhibitory concentration (IC50) is over 500 nM in series [1] (setting [7]), over 500 nM in series [1] (setting [8]) and 19 ± 2 nM at HIF-1 [2].
Regarding `COc1cc2c3c(c4cc(OC)c(OC)cc4c2cc1OC)[C@H](O)[C@@H]1CCC[N@@+]1([O-])C3` [compound 10, 10R, 13aS, 14S-14-hydroxytylophorine N-oxide], the 50% inhibitory concentration (IC50) in series [1] (setting [4]) was over 2000 nM; in series [1] (setting [5]) it was over 2000 nM; at HIF-1 [2] (setting [6]) it was 441 nM.
For `COc1ccc2c3c(c4cc(OC)c(OC)cc4c2c1)CN1CCC[C@H]1[C@@H]3O` [compound 18, tylophorinine], the IC50 is over 500 nM in series [1] (setting [7]), over 500 nM in series [1] (setting [8]) and 19 nM against HIF-1 [2].
On to `COc1ccc2c3c(c4cc(OC)c(OC)cc4c2c1)CN1O[C@@H](CC(C)=O)CC[C@H]1[C@H]3O` (single isomer, unassigned) [compound 3, 12S, 14aS, 15S-11-oxa-12-(2-oxopropyl)-hydroxyboehmeriasin A], for which the values for the half-maximal inhibitory concentration (IC50) (in series [1] (setting [4]); in series [1] (setting [5]); at HIF-1 [2] (setting [6])) were over 20000 nM, over 10000 nM and 2660 ± 1810 nM, respectively.
As for `COc1ccc([C@@H](O)[C@@H](C)Oc2ccc([C@H]3O[C@H](c4ccc(O[C@H](C)[C@H](O)c5ccc6c(c5)OCO6)c(OC)c4)[C@H](C)[C@H]3C)cc2OC)cc1OC` [Manassantin B], on HIF-1 [3], the concentration for half-maximal inhibition (IC50) is 3 nM.
`COc1cc2c3c(c4cc(O)c(OC)cc4c2cc1O)[C@@H](O)[C@H]1CCC[N@+]1([O-])C3` [compound 7, 10S, 13aR, 14R-2-hydroxyl tylophorinidine N-oxide]: the values for the IC50 (in series [1] (setting [4]); in series [1] (setting [5]); on HIF-1 [2] (setting [6])) were over 1000 nM, over 1000 nM and 37 ± 8 nM, respectively.
Consider `COc1ccc2c3c(c4cc(OC)c(O)cc4c2c1)CN1C(=O)CC[C@H]1[C@H]3O` [compound 1, 11-keto-tylophorinidine], for which the half-maximal inhibitory concentration (IC50) against HIF-1 [2] is over 10000 nM.
With `COc1cc2c(cc1O)c1c(c3cc(OC)c(OC)cc32)C[N@+]2([O-])CCC[C@H]2[C@@H]1O` [compound 8, 10R-2-hydroxyl tylophorinine N-oxide], the concentration for half-maximal inhibition (IC50) was over 1000 nM in series [1] (setting [4]), over 1000 nM in series [1] (setting [5]) and 170 ± 106 nM against HIF-1 [2].
For `COc1ccc2c3c(c4cc(OC)c(OC)cc4c2c1)C[N@+]1([O-])CCC[C@H]1C3` [compound 12, 10R-deoxytylophorinine N-oxide], the concentration for half-maximal inhibition (IC50) was over 2000 nM in series [1] (setting [7]), over 1000 nM in series [1] (setting [8]) and 254 nM at HIF-1 [2].
For the molecule `COc1cc2c(cc1O)c1c(c3cc(OC)c(OC)cc32)CN2CCC[C@@H]2[C@@H]1O` [compound 9, 13aR-2-hydroxyl tylophorinine], the half-maximal inhibitory concentration (IC50) in series [1] (setting [7]) was over 2000 nM; in series [1] (setting [8]), over 2000 nM; on HIF-1 [2] it was 489 ± 108 nM.
Consider `COc1ccc2c3c(c4cc(OC)c(OC)cc4c2c1)C[N+]1([O-])CCC[C@@H]1[C@@H]3O` (stereo partly shown) [compound 17, tylophorinine N-oxide], for which the half-maximal inhibitory concentration (IC50) in the series with T47D cells was over 100 nM; in series [1], over 100 nM; at HIF-1 [2], 3 nM.
For the molecule `COc1cc2c3c(c4ccc(O)cc4c2cc1OC)[C@H](O)[C@@H]1CCCN1C3` [compound 15, trans-(+)-3,14a-dihydroxy-6,7-dimethoxyphenanthroindolizidine], the IC50 in series [1] (setting [4]) is over 250 nM; in series [1] (setting [5]) it was over 250 nM; at HIF-1 [2] (setting [6]) it was 6 ± 3 nM.
As for `COc1cc2c3c(c4cc(O)c(OC)cc4c2cc1O)C(O)C1CCCN1C3` (stereo not shown) [compound 5, 2-hydroxyl tylophorinidine], the results for the IC50 (in series [1] (setting [4]); in series [1] (setting [5]); at HIF-1 [2]) were over 250 nM, over 250 nM and 10 nM, respectively.
Regarding `COc1cc2c3c(c4ccc(O)cc4c2cc1O)[C@@H](O)[C@@H]1CCC[N@@+]1([O-])C3` [compound 6, 10R, 14R-3-O-demethyl tylophorinidine N-oxide], the IC50 in series [1] (setting [4]) was over 200 nM; in series [1] (setting [5]) it was over 200 nM; on HIF-1 [2] (setting [6]), 50 ± 35 nM.
Take `COc1ccc2c3c(c4cc(OC)c(OC)cc4c2c1)CN1CCC[C@H]1C3` [compound 20, deoxytylophorinine]: the IC50 in series [1] (setting [7]) was over 15000 nM; in series [1] (setting [8]) it was over 600 nM; at HIF-1 [2], 115 nM. The “times more potent than its dehydrogenated product (22)” value at HIF-1 [2] (compound (20) versus (22), HIF-1 IC50) was “at least 8 times”.
Regarding `COc1ccc2c(c1)c1cc(OC)c(OC)cc1c1c[n+]3c(cc21)CCC3` [compound 22, tylophoridicine D], at HIF-1 [2], the IC50 was over 10000 nM.
Turning to `COc1ccc2c3c(c4cc(OC)c(O)cc4c2c1)CN1CCC[C@H]1[C@H]3O` [compound 14, tylophorinidine], the IC50 in series [1] (setting [4]) was over 100 nM; in series [1] (setting [5]), over 10 nM; against HIF-1 [2] it was 4 nM.
For `COc1cc2c3c(c4cc(OC)c(OC)cc4c2cc1OC)CN1CCC[C@H]1C3` [compound 19, 13aS-tylophorine], the IC50 in series [1] (setting [7]) was over 2000 nM; in series [1] (setting [8]), over 1000 nM; against HIF-1 [2], 438 nM.
